Test system: viable neurons in the CA1 area of the hippocampus
Assay: Quantification of viable neurons in area CA1 (cresyl violet)
Type: in vivo
Conditions: 0.3 mg/Kg i.p., oligomer-intoxicated mice (not shown)
Experimental: The neuroprotective effect of the compounds, i.e. the ability thereof to protect cells from Aβ25-35 oligomer neurotoxicity and neurodegeneration, is also tested (FIG. 10). The test compounds are thus administered on the same day as the injection of the Aβ25-35 oligomers and are continued to be administered on a daily basis up to day 7 after the injection of the oligomers, at which time the mice are subjected to the YMT, PAT, MWT or ORT. The brain's anatomy is analysed and neuronal cells are counted by immunohistochemistry on mice sacrificed at D13. The biochemical analyses for the quantification of markers of oxidative stress and apoptosis were carried out at D16 on a group of mice that had been subjected to the WMT (FIG. 10). […]
In Alzheimer's patients, a decrease in neurons has been reported in the CA1 region (and to a lesser extent in the CA3 region). […] In order to quantify viable neurons in the CA1 region of the mouse hippocampus, the corresponding sections were stained with cresyl violet (0.12%, Sigma-Aldrich), dehydrated with ethanol, treated with xylene and mounted with a mounting medium (Mountex medium, BDH Laboratory Supplies) and dried at 24° C. at ambient temperature. The images were recorded and analysed (Nanozoomer virtual microscopy system, Hamamatsu, Massy, France). […]

SMILES: NC12CC3CC(C1)CC(CCF)(C3)C2 [FENM, 3-(2-fluoroethyl)adamantan-1-amine]
- number of viable neurons in the CA1 area: maintained the number of viable neurons in the CA1 area of the hippocampus
- thickness of the CA1 area: counteracted the increase in thickness of this area

Source: patent US12611387B2, “Compound and composition for inducing neuroprotection” (REST THERAPEUTICS, priority 2020, dated 2026)
